Here are results for 1 compound from PMC5399312 (Journal of Experimental & Clinical Cancer Research : CR, 2017).

Series [1] has as its system HCT116 cells. As to the kind of experiment: Cell proliferation assay (CCK-8). In kind it is cell-based, human. To be noted: 100, 200, 400 μM, 24-96 h. The method, then: (§1) HCT116 and SW480 cells were seeded at a density of 2 × 10^3 per well into 96-well plates. Cell proliferation was assessed by incubating them with Cell Counting Kit-8 reagents (Dojindo, Shanghai, China) for 24 h,48 h, 72 h, 96 h at 37 °C and measuring the absorbance at 450 nm. The experiment was performed in triplicate.

Series [2] has as its system SW480 cells. As to the kind of experiment: Cell proliferation assay (CCK-8). The note with it: 100, 200, 400 μM, 24-96 h. Type of series: cell-based, human. The method, then:
as §1

The test system of series [3] is SW480 cells transfected with HK2 siRNA. As to the kind of experiment: HK2 siRNA knock-down, CCK-8 cytotoxicity. In kind it is cell-based, human. To be noted: compared with negative control siRNA cells. An excerpt:
SW480 cells were transfected with either two siRNAs against HK2 or one nontargeting siRNA and cultured in 6-well plates according to the manufacturer’s instructions. The target sequences of oligo siRNAs were as follows: siRNA: 5'- […] -3', nontargeting siRNA (Negative control, NC): 5'- […] -3' [21].

Series [4] concerns p-AMPKα in SW480 cells. As to the kind of experiment: Western blot analysis. Type of series: cell-based, human. To be noted: 75, 150 and 300 μM. The method, then: The harvested cells were lysed with radioimmunoprecipitation assay (RIPA) buffer (Beyotime, China). Insoluble debris was removed by centrifugation and the concentration of total proteins was determined using BCA Protein Assay Kit (Beyotime, China). Then lysate protein (20-40 μg) was subjected to 10% SDS-PAGE and electrophoretically transferred to polyvinylidene difluoride membranes (PVDF) (Millipore, USA). […] Protein bands were visualized using an enhanced chemiluminescence reagent (ECL Plus) (GE Healthcare, USA) after hybridization with a HRP conjugated secondary antibody. All experiments were performed in triplicate and analyzed by optical density.
(In general: Immunoblotting shows a protein as a band on a membrane.)

Series [5] can be described thus: Detection of free Benz in tumor tissue (HPLC). To be noted: 600 mg/Kg Benz-treated group. In kind it is in vivo, mouse. As for the experimental part: After recording the weights of tumor mass, tumor tissues from 600 mg/Kg Benz-treated group and 200 mg/Kg liposomal Benz-treated group were lightly washed and blotted to remove any excess blood. Then tumor tissues were homogenized and extracted with methanol, and 100 μL of the extracts were then subjected to HPLC assay. HPLC analysis was conducted by using a reverse phase column (Restek C18 5 μm, 250 mm × 4.6 mm) with a mobile phase of methanol-water- trifluoroacetic acid (20: 1000: 1).

For series [6], the system named is SW480 xenograft tumor tissues. As to the kind of experiment: TUNEL and H&E staining assay. In kind it is in vivo. To be noted: versus vehicle control. The method, then: Apoptosis of tumor tissues was detected by terminal deoxynucleotidyl transferase (TdT)-mediated dUTP-biotin nick end labeling (TUNEL) stain, using an In Situ Cell Death Detection Kit (Roche, Switzerland). The hematoxylin-eosin (H&E) staining was performed to observe the pathological changes in different groups.

On to `NC(CO)C(=O)NNCc1ccc(O)c(O)c1O` (stereo not drawn) [Benz, Benserazide], for which the cell proliferation entry in series [1] and in series [2] was “markedly inhibited proliferation” throughout. In addition, the “cytotoxicity to HK2 siRNA transfected cells” value in series [3] was “fewer effects”. Further, the “phosphorylation of AMPKα” value in series [4] was “increased”. Also, in series [5], the “average concentration of free Benz in tumor tissue” value worked out at 5.59 µg/mg. Besides, the “tumor apoptosis and pathological changes (TUNEL, H&E)” value in series [6] is “induced tumor apoptosis and pathological changes”.
